Experimental data taken from patent publication US9834542B2, “LXR modulators” (BRISTOL-MYERS SQUIBB COMPANY, priority 2013, dated 2017).

Target: T1, LXRβ (Homo sapiens, UniProt P55055)
T1 construct: Co-transfection expression plasmids, comprising full-length LXRα (pCMX-h LXRα[…] or LXRβ (pCMX-hLXRβ)); expressed in transfected cells; host or cells: CV-1 African Green Monkey Kidney Cells
T1 sequence (P55055 1-460): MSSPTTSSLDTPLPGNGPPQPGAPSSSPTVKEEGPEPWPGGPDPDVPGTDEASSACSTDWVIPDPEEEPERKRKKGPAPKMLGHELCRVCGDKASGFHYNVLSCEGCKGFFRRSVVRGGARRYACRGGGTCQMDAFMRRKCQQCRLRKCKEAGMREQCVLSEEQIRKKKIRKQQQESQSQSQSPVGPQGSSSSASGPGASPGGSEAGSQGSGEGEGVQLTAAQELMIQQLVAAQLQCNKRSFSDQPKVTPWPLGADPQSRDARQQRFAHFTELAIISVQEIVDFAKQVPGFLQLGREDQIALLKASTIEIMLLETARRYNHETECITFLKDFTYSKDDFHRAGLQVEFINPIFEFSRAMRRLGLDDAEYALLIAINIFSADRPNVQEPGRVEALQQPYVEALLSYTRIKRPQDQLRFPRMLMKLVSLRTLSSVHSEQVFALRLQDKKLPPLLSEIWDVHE
T1 sequence (P19793 1-462 partner): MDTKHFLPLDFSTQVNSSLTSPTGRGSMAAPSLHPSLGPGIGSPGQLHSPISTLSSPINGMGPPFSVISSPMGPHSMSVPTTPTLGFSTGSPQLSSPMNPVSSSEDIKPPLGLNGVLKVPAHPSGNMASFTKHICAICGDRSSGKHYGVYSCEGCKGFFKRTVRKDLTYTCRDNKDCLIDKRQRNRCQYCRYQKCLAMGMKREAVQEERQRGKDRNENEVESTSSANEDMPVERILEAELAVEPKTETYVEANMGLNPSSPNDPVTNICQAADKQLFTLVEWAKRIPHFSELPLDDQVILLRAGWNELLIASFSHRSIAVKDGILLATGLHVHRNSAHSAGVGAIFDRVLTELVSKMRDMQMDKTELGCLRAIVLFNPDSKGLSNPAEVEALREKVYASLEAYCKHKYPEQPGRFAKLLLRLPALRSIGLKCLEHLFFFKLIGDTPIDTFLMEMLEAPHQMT
Experiment: Co-transfection assay (LXRE luciferase reporter), LXRβ
Assay type: cell-based
Conditions: for EC50: CV-1 cells transfected with pCMX-hLXRβ and LXREx1-Tk-Luciferase, 20 hours incubation; for Emax: LXRβ co-transfection, relative to high control 1-(2,4-difluorobenzyl)-2-oxo-6-(4-phenoxyphenyl)-4-(trifluoromethyl)-1,2-dihydropyridine-3-carbonitrile, read-out: % Efficacy
Outline: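 Luciferase output from an LXRE-Tk reporter measured after 20 h, 37 °C compound exposure of transiently transfected CV-1 cells expressing human LXRβ with endogenous RXR. EC50 fitted from 11-point half-log dose responses (mean of ≥2 runs); % efficacy versus maximal response of the reference agonist.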

## Cc1nc(-c2cc(-c3ccc(C)c(S(C)(=O)=O)c3)ccc2-n2cc(C(F)(F)F)nc2C)c(-c2ccc3c(c2)OC(F)(F)O3)o1 [Example 445, 5-(2,2-difluorobenzo[d][1,3]dioxol-5-yl)-2-methyl-4-(4′-methyl-4-(2-methyl-4-(trifluoromethyl)-1H-imidazol-1-yl)-3′-(methylsulfonyl)biphenyl-3-yl)oxazole]
  EC50: 36 nM
  Emax: 69%

## Cc1nc(-c2cc(-c3cccc(S(C)(=O)=O)c3)ccc2-n2cc(C(F)(F)F)nc2C)c(-c2ccc(N(C)C)cc2)o1 [Example 500, N,N-dimethyl-4-(2-methyl-4-(4-(2-methyl-4-(trifluoromethyl)-1H-imidazol-1-yl)-3′-(methylsulfonyl)biphenyl-3-yl)oxazol-5-yl)aniline]
  EC50: 85 nM
  Emax: 96%

## CS(=O)(=O)c1cccc(-c2ccc(-n3cc(C(F)(F)F)nc3Cl)c(-n3nncc3-c3ccc(Cl)cc3Cl)c2)c1 [Example 143, 1-{4-[2-chloro-4-(trifluoromethyl)-1H-imidazol-1-yl]-3′-(methylsulfonyl)biphenyl-3-yl}-5-(2,4-dichlorophenyl)-1H-1,2,3-triazole]
  EC50: 942 nM
  Emax: 98%

## Cc1nc(C(F)F)cn1-c1ccc(-c2cccc(S(C)(=O)=O)c2)cc1-n1nncc1-c1ccc(OC(F)(F)F)c(F)c1 [Example 169, 1-{4-[4-(difluoromethyl)-2-methyl-1H-imidazol-1-yl]-3′-(methylsulfonyl)biphenyl-3-yl}-5-{3-fluoro-4-[(trifluoromethyl)oxy]phenyl}-1H-1,2,3-triazole]
  EC50: 570 nM
  Emax: 93%

## CCc1nc(-c2ccc(OC(F)(F)F)cc2)c(-c2cc(-c3cc(F)c(CO)c(S(C)(=O)=O)c3)ccc2-n2cc(C(F)(F)F)nc2C)o1 [Example 600, {3′-(2-ethyl-4-{4-[(trifluoromethyl)oxy]phenyl}-1,3-oxazol-5-yl)-3-fluoro-5-(methylsulfonyl)-4′-[2-methyl-4-(trifluoromethyl)-1H-imidazol-1-yl]biphenyl-4-yl}methanol]
  EC50: 20 nM
  Emax: 101%

## Cc1nc(C(F)(F)F)cn1-c1ccc(-c2cccc(S(C)(=O)=O)c2)cc1-c1nc(C2CC2)cn1-c1ccc(Cl)cc1 [Example 646, 1-(4-chlorophenyl)-4-cyclopropyl-2-(4-(2-methyl-4-(trifluoromethyl)-1H-imidazol-1-yl)-3′-(methylsulfonyl)-[1,1′-biphenyl]-3-yl)-1H-imidazole]
  EC50: 572 nM
  Emax: 44%

## CNS(=O)(=O)c1cccc(-c2ccc(-n3cc(C(F)(F)F)nc3C)c(-c3nc(C)oc3-c3ccc(OC(F)F)cc3)c2)c1 [Example 540, 3′-(5-(4-(difluoromethoxy)phenyl)-2-methyloxazol-4-yl)-N-methyl-4′-(2-methyl-4-(trifluoromethyl)-1H-imidazol-1-yl)-[1,1′-biphenyl]-3-sulfonamide]
  EC50: 28 nM
  Emax: 106%

## Cc1nc(-c2cc(-c3cccc(S(C)(=O)=O)c3)ccc2-n2cc(C(F)(F)F)nc2C)c(-c2ccc3c(c2)CC(C)(C)O3)o1 [Example 419, 5-(2,2-dimethyl-2,3-dihydrobenzofuran-5-yl)-2-methyl-4-(4-(2-methyl-4-(trifluoromethyl)-1H-imidazol-1-yl)-3′-(methylsulfonyl)biphenyl-3-yl)oxazole]
  EC50: 145 nM
  Emax: 66%

## Cc1ncc(-c2oc(C)nc2-c2cc(-c3cc(F)c(CO)c(S(C)(=O)=O)c3)ccc2-n2cc(C(F)(F)F)nc2C)cn1 [Example 428, (3-fluoro-4′-(2-methyl-4-(trifluoromethyl)-1H-imidazol-1-yl)-3′-(2-methyl-5-(2-methylpyrimidin-5-yl)oxazol-4-yl)-5-(methylsulfonyl)biphenyl-4-yl)methanol]
  EC50: 3090 nM
  Emax: 50%
